Tests used:
[1] = tested on: dissociated DRG neurons; test: FluoVolt membrane potential imaging of dissociated DRG neurons; type: cell-based, mouse; conditions: 1 day NGF followed by adenosine treatment; capsaicin stimulation
Source text: DRG were isolated from mice using a modified version of the previously described protocol (Perner C, et al. (2021) STAR Protoc. 2:100333). Briefly, mice were euthanized and dosed in 70% ethanol to prevent fur contamination. Mice were positioned prone, and an incision was made along the spine from the neck to the base of the tail. Under a dissecting microscope, the surrounding soft tissue of the spinal column was removed from the dorsal side by Friedman-Pearson Rongeurs (Fine Science Tools, Foster City, CA, Cat #16021-14) from the mid thoracic region to the lumbosacral joint. The vertebral bone surrounding the DRG was gently crushed and removed with rongeurs exposing the spinal cord. The DRG were carefully extracted near the foramen between the vertebral levels. L3 and L4 DRG were collected for analyses. Dissected DRG were placed directly into ice-cold DMEM-F12 medium (ThermoFisher, Cat #11320033) for in vitro culture, Trizol (ThermoFisher, Cat #15596018) for PCR analyses, or 4% PFA for histology. For cell culture experiments, collected DRG were digested in digestion solution comprised of collagenase type II (Worthington, Lakewood, NJ, Cat #LS004176) and dispase (1.5 mg/mL each) dissolved in DMEM/F12. […]
DRG neuron potential changes were evaluated with FluoVolt, a voltage sensitive indicator dye (ThermoFisher, Cat #F10488). […]

[2] = tested on: fractured tibiae; test: Safranin O histology of fractured tibiae; type: in vivo, mouse; conditions: 21 days post-fracture
Description: In all experiments, 12-week-old to 16-week-old C57BL/6J male mice (Jackson Laboratory, Bar Harbor, ME) and Lepr-cre; tdTomato reporter mice were used. The average mouse weight was 25 grams and mice were housed in groups of four to five, and kept on a 12-hr light-dark cycle with lights off at 1800 hr. All animals had ad libitum access to chow (PMI LabDiet 5001) and water. Fracture surgeries were performed as previously described (Zeng Y, et al. (2020) Adv Mater. 32:e1906022). Animals were anesthetized by isoflurane and injected with 1 mg/kg buprenorphine SR-LAB (ZooPharm, Laramie, WY). Each mouse was then placed in a supine position with the right tibia disinfected. After skin incision and reflection, proximal to the right knee, a 0.7-mm pin was inserted from the tibial plateau through the medullary cavity to stabilize the tibia, and a cut was made at the tibial midshaft to induce a transverse fracture. Bupivacaine (0.5%; Hospira, Lake Forest, IL) at ˜1 mg/kg body weight was applied at the surgical site following wound closure using 2 reflex clips (5 mm). For animals treated with control and adenosine-loaded macroporous hydrogels, macroporous hydrogels measuring approximately 5 mm (length)×3 mm (width)×1 mm (thick) containing either 1.05±0.1 mg adenosine (ADO) or no adenosine (CTL) were implanted adjacent to the fractures immediately. […]

SMILES: Nc1ncnc2c1ncn2[C@@H]1O[C@H](CO)[C@@H](O)[C@H]1O [adenosine]
- NGF-induced increase in membrane potential (FluoVolt) [1]: attenuated
- callus size vs controls (histology) [2]: smaller callus size
- cortical bone at fracture site vs controls (histology) [2]: more cortical bone across the fracture site
